These results are taken from US20240057606A1, “MOLECULES HAVING CERTAIN PESTICIDAL UTILITIES, AND INTERMEDIATES, COMPOSITIONS, AND PROCESSES RELATED THERETO” (priority 2020, published 2024).

Holding throughout (type): in vivo
For series [1], the system named is Beet Armyworm (Spodoptera exigua, "BAW"). Put plainly: Bioassay on beet armyworm, 128-well diet tray assay. The following applies: 168 h, 50 μg/cm^2 of test compound on artificial diet, second instar larvae, 25° C., five to seven days, average of eight wells, read-out: BAW % Control (or Mortality) rating. The procedure: (§1) Bioassays on Beet Armyworm (Spodoptera exigua, “BAW”) and Cabbage Looper (Trichoplusia ni, “CL”)
(§2) Certain molecules disclosed in this document were tested against BAW and CL using procedures described in the following examples. In the reporting of the results, the “BAW & CL Rating Table” was used (See Table Section).
Bioassays on BAW were conducted using a 128-well diet tray assay. one to five second instar BAW larvae were placed in each well (3 mL) of the diet tray that had been previously filled with 1 mL of artificial diet to which 50 μg/cm^2 of the test compound (dissolved in 50 μL of 90:10 acetone-water mixture) had been applied (to each of eight wells) and then allowed to dry. Trays were covered with a clear self-adhesive cover and held at 25° C., 14:10 light-dark cycle for five to seven days. Percent mortality was recorded for the larvae in each well; activity in the eight wells was then averaged. The results are indicated in the table entitled “Table ABC: Biological Results” (See Table Section).

Series [2] relates to Cabbage Looper (Trichoplusia ni, "CL"). Put plainly: Bioassay on cabbage looper, 128-well diet tray assay. The following applies: 168 h, 50 μg/cm^2 of test compound on artificial diet, second instar larvae, 25° C., five to seven days, average of eight wells, read-out: CL % Control (or Mortality) rating. The procedure: as §1, §2
Bioassays on CL were conducted using a 128-well diet tray assay. one to five second instar CL larvae were placed in each well (3 mL) of the diet tray that had been previously filled with 1 mL of artificial diet to which 50 μg/cm^2 of the test compound (dissolved in 50 μL of 90:10 acetone-water mixture) had been applied (to each of eight wells) and then allowed to dry. Trays were covered with a clear self-adhesive cover and held at 25° C., 14:10 light-dark cycle for five to seven days. Percent mortality was recorded for the larvae in each well; activity in the eight wells was then averaged. The results are indicated in the table entitled “Table ABC: Biological Results” (See Table Section).

The test system of series [3] is Yellow Fever Mosquito (Aedes aegypti, "YFM"). Put plainly: Bioassay on yellow fever mosquito larvae, 96-well plate assay. The following applies: 4000 ppm DMSO master solution diluted with 90:10 water:acetone; about 1 day-old larvae; room temperature; scored after 3 days. The protocol:
Bioassays On Yellow Fever Mosquito (Aedes aegypti, “YFM”)
Certain molecules disclosed in this document were tested against YFM using procedures described in the following paragraph. In the reporting of the results, the “YFM Rating Table” was used (See Table Section).
Master plates containing 400 μg of a molecule dissolved in 100 μL of dimethyl sulfoxide (DMSO) (equivalent to a 4000 ppm solution) are used. A master plate of assembled molecules contains 15 μL per well. To this plate, 135 μL of a 90:10 water:acetone mixture is added to each well. A robot (Biomek® NXP Laboratory Automation Workstation) is programmed to dispense 15 μL aspirations from the master plate into an empty 96-well shallow plate (“daughter” plate). There are 6 reps (“daughter” plates) created per master. The created daughter plates are then immediately infested with YFM larvae.
The day before plates are to be treated, mosquito eggs are placed in Millipore water containing liver powder to begin hatching (4 g. into 400 mL). After the daughter plates are created using the robot, they are infested with 220 μL of the liver powder/larval mosquito mixture (about 1 day-old larvae). After plates are infested with mosquito larvae, a non-evaporative lid is used to cover the plate to reduce drying. Plates are held at room temperature for 3 days prior to grading. After 3 days, each well is observed and scored based on mortality.

For `O=C(/N=C1\SCC(=O)N1c1ccc2ccccc2c1)Nc1ccc(-c2ncn(-c3ccc(OC(F)(F)F)cc3)n2)cc1F` [F13, (Z)-1-(2-Fluoro-4-(1-(4-(trifluoromethoxy)phenyl)-1H-1,2,4-triazol-3-yl)phenyl)-3-(3-(naphthalen-2-yl)-4-oxothiazolidin-2-ylidene)urea], the mortality at 50 µg/cm2 in series [1] and in series [2] was 50 to 100% each time. For the same molecule, in series [3], the “YFM % Control (or Mortality) rating” value is “D (No activity noticed in this bioassay)”.

For `Cn1ccc2ccc(N3C(=O)CS/C3=N\C(=O)Nc3ccc(-c4ncn(-c5ccc(OC(F)(F)F)cc5)n4)cc3F)cc21` [F14, (Z)-1-(2-Fluoro-4-(1-(4-(trifluoromethoxy)phenyl)-1H-1,2,4-triazol-3-yl)phenyl)-3-(3-(1-methyl-1H-indol-6-yl)-4-oxothiazolidin-2-ylidene)urea], the mortality at 50 µg/cm2 in series [1] and in series [2] was 50 to 100% in each case. In addition, the “YFM % Control (or Mortality) rating” value in series [3] is on record as “A (80-100)”.

`Cn1ccc2c(N3C(=O)CS/C3=N\C(=O)Nc3ccc(-c4ncn(-c5ccc(OC(F)(F)F)cc5)n4)cc3F)cccc21` [F15, (Z)-1-(2-Fluoro-4-(1-(4-(trifluoromethoxy)phenyl)-1H-1,2,4-triazol-3-yl)phenyl)-3-(3-(1-methyl-1H-indol-4-yl)-4-oxothiazolidin-2-ylidene)urea]: the mortality at 50 µg/cm2 in series [1] and in series [2] was 50 to 100% in each case. For the same molecule, in series [3], the “YFM % Control (or Mortality) rating” value is “A (80-100)”.

On to `O=C(/N=C1\SCC(=O)N1c1cccc2ccccc12)Nc1ccc(-c2ncn(-c3ccc(OC(F)(F)F)cc3)n2)cc1F` [F16, (Z)-1-(2-Fluoro-4-(1-(4-(trifluoromethoxy)phenyl)-1H-1,2,4-triazol-3-yl)phenyl)-3-(3-(naphthalen-1-yl)-4-oxothiazolidin-2-ylidene)urea], for which the mortality at 50 µg/cm2 in series [1] and in series [2] was 50 to 100% throughout. Also, the “YFM % Control (or Mortality) rating” value in series [3] is recorded as “A (80-100)”.

Consider `O=C(/N=C1\SCC(=O)N1c1cccc2c1CCOC2)Nc1ccc(-c2ncn(-c3ccc(OC(F)(F)F)cc3)n2)cc1F` [F18, (Z)-1-(2-Fluoro-4-(1-(4-(trifluoromethoxy)phenyl)-1H-1,2,4-triazol-3-yl)phenyl)-3-(3-(isochroman-5-yl)-4-oxothiazolidin-2-ylidene)urea], for which the mortality at 50 µg/cm2 in series [1] and in series [2] was 50 to 100% each time. Besides, the “YFM % Control (or Mortality) rating” value in series [3] is given as “A (80-100)”.

As for `O=C(/N=C1\SCC(=O)N1c1cccc2c1COC2=O)Nc1ccc(-c2ncn(-c3ccc(OC(F)(F)F)cc3)n2)cc1F` [F19, (Z)-1-(2-Fluoro-4-(1-(4-(trifluoromethoxy)phenyl)-1H-1,2,4-triazol-3-yl)phenyl)-3-(4-oxo-3-(1-oxo-1,3-dihydroisobenzofuran-4-yl)thiazolidin-2-ylidene)urea], the mortality (in general, the share of the test organisms that died) at 50 µg/cm2 in series [1] is 50 to 100%; in series [2], 0%. In addition, the “YFM % Control (or Mortality) rating” value in series [3] is “D (No activity noticed in this bioassay)”.

Turning to `O=C(/N=C1\SCC(=O)N1c1cccc2occc12)Nc1ccc(-c2ncn(-c3ccc(C(F)(F)C(F)(F)F)cc3)n2)cc1F` [F20, (Z)-1-(3-(Benzofuran-4-yl)-4-oxothiazolidin-2-ylidene)-3-(2-fluoro-4-(1-(4-(perfluoroethyl)phenyl)-1H-1,2,4-triazol-3-yl)phenyl)urea], the mortality at 50 µg/cm2 in series [1] and in series [2] was 50 to 100% in each case. In addition, in series [3], the “YFM % Control (or Mortality) rating” value is reported as “D (No activity noticed in this bioassay)”.

With `O=C(/N=C1\SCC(=O)N1c1cccc2ccoc12)Nc1ccc(-c2ncn(-c3ccc(C(F)(F)C(F)(F)F)cc3)n2)cc1F` [F21, (Z)-1-(3-(Benzofuran-7-yl)-4-oxothiazolidin-2-ylidene)-3-(2-fluoro-4-(1-(4-(perfluoroethyl)phenyl)-1H-1,2,4-triazol-3-yl)phenyl)urea], the mortality at 50 µg/cm2 in series [1] and in series [2] was 50 to 100% each time. Moreover, the “YFM % Control (or Mortality) rating” value in series [3] is listed as “A (80-100)”.

For the molecule `Cc1cc(-c2ncn(-c3ccc(OC(F)(F)C(F)(F)F)cc3)n2)ccc1NC(=O)/N=C1\SCC(=O)N1c1cccc2occc12` [F22, (Z)-1-(3-(Benzofuran-4-yl)-4-oxothiazolidin-2-ylidene)-3-(2-methyl-4-(1-(4-(perfluoroethoxy)phenyl)-1H-1,2,4-triazol-3-yl)phenyl)urea], the mortality at 50 µg/cm2 in series [1] and in series [2] was 50 to 100% each time. The “YFM % Control (or Mortality) rating” value in series [3] is “A (80-100)”.

Turning to `Cc1cc(-c2ncn(-c3ccc(OC(F)(F)C(F)(F)F)cc3)n2)ccc1NC(=O)/N=C1\SCC(=O)N1c1cccc2ccoc12` [F23, (Z)-1-(3-(Benzofuran-7-yl)-4-oxothiazolidin-2-ylidene)-3-(2-methyl-4-(1-(4-(perfluoroethoxy)phenyl)-1H-1,2,4-triazol-3-yl)phenyl)urea], the mortality at 50 µg/cm2 in series [1] and in series [2] was 50 to 100% in each case. Besides, the “YFM % Control (or Mortality) rating” value in series [3] is given as “A (80-100)”.

Turning to `Cc1cc(-c2ncn(-c3ccc(OC(F)(F)C(F)(F)F)cc3)n2)ccc1NC(=O)/N=C1\SCC(=O)N1c1cccc2c1ccn2C` [F27, (Z)-1-(3-(1-Methyl-1H-indol-4-yl)-4-oxothiazolidin-2-ylidene)-3-(2-methyl-4-(1-(4-(perfluoroethoxy)phenyl)-1H-1,2,4-triazol-3-yl)phenyl)urea], the mortality at 50 µg/cm2 in series [1] and in series [2] was 50 to 100% each time. In addition, the “YFM % Control (or Mortality) rating” value in series [3] is reported as “A (80-100)”.

For `Cc1cc(-c2ncn(-c3ccc(OC(F)(F)C(F)(F)F)cc3)n2)ccc1NC(=O)/N=C1\SCC(=O)N1c1ccc2ccccc2c1` [F29, (Z)-1-(2-Methyl-4-(1-(4-(perfluoroethoxy)phenyl)-1H-1,2,4-triazol-3-yl)phenyl)-3-(3-(naphthalen-2-yl)-4-oxothiazolidin-2-ylidene)urea], the mortality at 50 µg/cm2 in series [1] and in series [2] was 50 to 100% each time. Besides, the “YFM % Control (or Mortality) rating” value in series [3] was “D (No activity noticed in this bioassay)”.

Consider `Cc1cc(-c2ncn(-c3ccc(OC(F)(F)C(F)(F)F)cc3)n2)ccc1NC(=O)/N=C1\SCC(=O)N1c1cccc2ncccc12` [F32, (Z)-1-(2-Methyl-4-(1-(4-(perfluoroethoxy)phenyl)-1H-1,2,4-triazol-3-yl)phenyl)-3-(4-oxo-3-(quinolin-5-yl)thiazolidin-2-ylidene)urea], for which the mortality at 50 µg/cm2 in series [1] and in series [2] was 50 to 100% throughout. Besides, the “YFM % Control (or Mortality) rating” value in series [3] was “A (80-100)”.

Regarding `O=C(/N=C1\SCC(=O)N1c1cccc2ncccc12)Nc1ccc(-c2ncn(-c3ccc(C(F)(F)F)cc3)n2)cc1F` [F33, (Z)-1-(2-Fluoro-4-(1-(4-(trifluoromethyl)phenyl)-1H-1,2,4-triazol-3-yl)phenyl)-3-(4-oxo-3-(quinolin-5-yl)thiazolidin-2-ylidene)urea], the mortality at 50 µg/cm2 in series [1] and in series [2] was 50 to 100% in each case. The “YFM % Control (or Mortality) rating” value in series [3] is on record as “A (80-100)”.
